Entries after “also recorded” stand apart in the source; their conditions may differ. Read-outs that look alike come from different tables or passages of the source.
Experiments:
[1] = test system: L. major (FV1) promastigotes; assay: Antipromastigote resazurin assay, L. major (FV1) wild type; assay type: cell-based, Leishmania major; conditions: for inhibition of growth at 10000 µM / EC50: Leishmania major
[2] = biological target: T1, LmjIPCS (inositol phosphorylceramide synthase from L. major) (Leishmania major, UniProt E9AFX2); assay: biochemical; assay type: biochemical; set-up: inhibition: dose or concentration left out as unconfirmed; conditions: for inhibition: read-out: inhibition LmjIPCS
T1 sequence (E9AFX2 1-338): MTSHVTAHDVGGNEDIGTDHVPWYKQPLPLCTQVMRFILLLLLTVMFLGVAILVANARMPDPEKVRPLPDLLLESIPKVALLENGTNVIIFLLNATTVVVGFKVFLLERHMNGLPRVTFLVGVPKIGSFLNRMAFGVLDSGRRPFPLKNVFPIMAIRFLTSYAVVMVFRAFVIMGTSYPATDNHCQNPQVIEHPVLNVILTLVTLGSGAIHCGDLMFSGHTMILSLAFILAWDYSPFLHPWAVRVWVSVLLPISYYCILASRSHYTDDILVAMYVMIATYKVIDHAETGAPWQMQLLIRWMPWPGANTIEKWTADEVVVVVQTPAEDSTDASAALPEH

[3] = test system: clemastine fumarate-resistant L. major promastigotes (cl.C and cl.D); assay type: cell-based, Leishmania major
[4] = test system: Leishmania species (L. major, L. amazonensis, L. donovani, L. infantum); assay: Dose response positive control, each Leishmania species; assay type: cell-based, Leishmania spp.; conditions: for each species
Description: […]. Resazurin solution (10 μL) was then added and the plate, incubated at 26 °C for 4 h prior to measurement using a fluorescence plate reader (Ex555/Em585). EC50 values were calculated using sigmoidal regression analysis (GraphPad Prism).
[…]. After 24 h of infection, serial dilutions of the test compounds in medium were added and the slides were incubated at 37 °C and 5% CO2 for 5 days (L. major) or 2 days (L. amazonensis). Amphotericin B and miltefosine were used as controls. At the end, cells were fixed with methanol and stained with Giemsa solution, and the intracelular amastigotes were counted using a light microscope. Results were expressed as the percentage reduction of intracellular amastigotes (compared with untreated control wells). EC50 values were calculated using sigmoidal regression analysis (GraphPad Prism).

[5] = test system: L. major add-back (AB) line promastigotes [pXNEO LmLCB2]; assay: microbe, parasite or virus in culture; assay type: cell-based; conditions: Leishmania major, 48 h
[6] = test system: L. major ΔLmjLCB2 mutant promastigotes; assay: microbe, parasite or virus in culture; assay type: cell-based; conditions: Leishmania major; sphingolipid-free mutant, 48 h; read-out: EC50 ΔLmjLCB2 parasites
[7] = NINDS set screen against L. major promastigotes, single concentration printed as 10mM
[8] = NINDS set screen, single concentration printed as 20mM
[9] = L. major promastigotes, dose response
[10] = secondary dose response, L. major (FV1), read-out: EC50 against L. major promastigotes
[11] = L. major promastigotes, secondary dose response

For `CNCCC=C1c2ccccc2CCc2ccccc21` [NORTRIPTYLINE], the “10mM inhibition L. major” value [1] was <5% and the “20mM inhibition LmjIPCS” value [2] was 81%.

For `Cc1cc(C(C)(C)C)c(O)c(C)c1CC1=NCCN1` [OXYMETAZOLINE], the “10mM inhibition L. major” value [1, 7] was <5% and the “20mM inhibition LmjIPCS” value [2, 8] was 75%.

For `CC(C)=CCc1c2c(c3occ(-c4ccc(O)c(O)c4)c(=O)c3c1O)C=CC(C)(C)O2` [POMIFERIN], the “10mM inhibition L. major” value [1, 7] was <5% and the “20mM inhibition LmjIPCS” value [2, 8] was 73%.

`CCCCOc1ccc(OCCCN2CCOCC2)cc1` [PRAMOXINE] was tested, and the “10mM inhibition L. major” value [1, 7] was <5% and the “20mM inhibition LmjIPCS” value [2] was 71%.

For `CN(C)CCCN1c2ccccc2Sc2ccccc21` [PROMAZINE], the “10mM inhibition L. major” value [1, 7] was <5% and the “20mM inhibition LmjIPCS” value [2] was 77%.

`CC(CN1c2ccccc2Sc2ccccc21)N(C)C` (stereo not shown) [PROMETHAZINE] was tested, and the “10mM inhibition L. major” value [1, 7] was <5% and the “20mM inhibition LmjIPCS” value [2, 8] was 78%.

For `CCCc1cc(=O)[nH]c(=S)[nH]1` [PROPYLTHIOURACIL], the “10mM inhibition L. major” value [1] was <5% and the “20mM inhibition LmjIPCS” value [2] was 73%.

In the case of `C=CC1=C(C)c2cc3[nH]c(cc4nc(cc5[nH]c(cc1n2)c(C)c5CCC(=O)O)C(CCC(=O)O)=C4C)c(C)c3C=C` [PROTOPORPHYRIN IX], the “10mM inhibition L. major” value [1, 7] is reported as <5% and the “20mM inhibition LmjIPCS” value [2, 8] is reported as 77%.

For `CCc1nc(N)nc(N)c1-c1ccc(Cl)cc1` [PYRIMETHAMINE], the “10mM inhibition L. major” value [1, 7] was <5% and the “20mM inhibition LmjIPCS” value [2, 8] was 77%.

For `COC1=C[C@@H](C)[C@@H]2C[C@H]3OC(=O)C[C@H]4C(C)=C(OC)C(=O)[C@H]([C@@]2(C)C1=O)[C@@]34C` [QUASSIN], the inhibition of growth at 10000 µM [1, 7] was < 5% and the “20mM inhibition LmjIPCS” value [2, 8] was 70%.

In the case of `C=C[C@H]1C[N@@]2CC[C@H]1C[C@H]2[C@H](O)c1ccnc2ccc(OC)cc12` [QUININE], the “10mM inhibition L. major” value [1, 7] is reported as <5% and the “20mM inhibition LmjIPCS” value [2] is reported as 70%.

`CC(C)CC(N(C)C)C1(c2ccc(Cl)cc2)CCC1` (stereo not shown) [SIBUTRAMINE] was tested, and the “10mM inhibition L. major” value [1, 7] was <5% and the “20mM inhibition LmjIPCS” value [2] was 74%.

`[H]/N=C(/NCCCCC)N/N=C/c1c[nH]c2ccc(OC)cc12` [TEGASEROD] was tested, and the inhibition of growth at 10000 µM [1, 7] was < 5% and the “20mM inhibition LmjIPCS” value [2, 8] was 71%.

For `CC(CN(C)C)CN1c2ccccc2Sc2ccccc21` (stereo not shown) [TRIMEPRAZINE], the “10mM inhibition L. major” value [1, 7] was <5% and the “20mM inhibition LmjIPCS” value [2] was 71%.

`CCOC(=O)C1=C(COCCN)NC(C)=C(C(=O)OC)C1c1ccccc1Cl` (stereo not shown) [amlodipine 2, amlodipine, reference compound] was tested, and the “ED50 vs L. major” value [1, 9] was 1910 µM, the EC50 [1, 10] was > 1 µM and the “10mM inhibition L. major” value [1, 7] was 62%. The “20mM inhibition LmjIPCS” value [2] was 80%, the IC50 [2] was 3 µM and the LmjIPCS inhibition ([2]; secondary dose response) was “confirmed”.

For `C[C@@H]1[C@H](O)[C@@H](C)/C=C/C=C/C=C/C=C/C=C/C=C/C=C/[C@H](O[C@@H]2O[C@H](C)[C@@H](O)[C@H](N)[C@@H]2O)C[C@@H]2O[C@](O)(C[C@@H](O)C[C@@H](O)[C@H](O)CC[C@@H](O)C[C@@H](O)CC(=O)O[C@H]1C)C[C@H](O)[C@H]2C(=O)O` [amphotericin B], the “cross-resistance in clemastine fumarate-resistant L. major clones” value (shortened to “cross-resistance”) [3] was “no evidence for cross-resistance”, the EC50 [4] was 0.027 ± 0.003 µM and the “20mM inhibition LmjIPCS” value [2] was 41%.

For `CN(C)CCCN1c2ccccc2Sc2ccc(Cl)cc21` [chlorpromazine 3, chlorpromazine, reference compound], the “ED50 vs L. major” value [1, 9] was 9800 µM, the EC50 [1, 10] was > 1 µM and the “10mM inhibition L. major” value [1, 7] was 76%. The “20mM inhibition LmjIPCS” value [2] was 88%, the IC50 [2] was 4.7 µM and the LmjIPCS inhibition ([2]; secondary dose response) was “confirmed”.

With `C[C@@H]1C[C@@H]([C@H](O)CC2CC(=O)NC(=O)C2)C(=O)[C@@H](C)C1` [cycloheximide, reference compound] the EC50 [5] was 0.02 µM, the EC50 [6] was 0.02 µM and the EC50 ([1]; FV1 WT, 48 h, compared with mutant lines, read-out: EC50 wild type L. major promastigotes) was 0.02 µM. For the same molecule, the inhibition at 20000 µM ([2]; read-out: 20mM inhibition LmjIPCS) was 9%.

In the case of `CC(NCCC(c1ccccc1)c1ccccc1)c1ccccc1` (stereo not shown) [fendiline 6, fendiline, reference compound], the “ED50 vs L. major” value [1, 9] is reported as 7640 µM, the EC50 [1, 10] is reported as > 1 µM and the “10mM inhibition L. major” value [1, 7] is reported as 74%. For the same molecule, the IC50 [2] was 4.22 µM, the “20mM inhibition LmjIPCS” value [2, 8] was 71% and the LmjIPCS inhibition ([2]; secondary dose response) was “confirmed”.

`CCCCCCCCCCCCCCCCOP(=O)([O-])OCC[N+](C)(C)C` [miltefosine, reference compound] was tested, and the “cross-resistance” value [3] was “no evidence for cross-resistance” and the inhibition [2] was 3.35%.

For `N=C1C=CC(=C(c2ccc(N)cc2)c2ccc(N)cc2)C=C1` [pararosaniline 8, pararosaniline], the “ED50 vs L. major” value [1, 9] was 9780 µM, the antileishmanial activity [1, 11] was “poor antileishmanial activity” and the “10mM inhibition L. major” value [1, 7] was 75%. The “20mM inhibition LmjIPCS” value [2] was 78%, the IC50 ([2]; dose response, read-out: IC50 vs LmjIPCS) was > 100 µM and the “IC50 against LmjIPCS” value ([2]; secondary dose response, commercially sourced samples) was “could not be determined”.

With `NC[C@@H]1O[C@H](O[C@H]2[C@@H](O)[C@H](O[C@@H]3[C@@H](O)[C@H](N)C[C@H](N)[C@H]3O[C@H]3O[C@H](CO)[C@@H](O)[C@H](O)[C@H]3N)O[C@@H]2CO)[C@H](N)[C@@H](O)[C@@H]1O` [paromomycin, reference compound] the “cross-resistance” value [3] was “no evidence for cross-resistance” and the inhibition [2] was -17%.

For `N=C(N)c1ccc(OCCCCCOc2ccc(C(=N)N)cc2)cc1` [pentamidine 9, pentamidine, reference compound], the “cross-resistance” value [3] was “no evidence for cross-resistance; also recorded: statistically significant hypersensitivity”, the “10mM inhibition L. major” value [1] was 59% and the “ED50 vs L. major” value [1] was 2050 µM.

For `O=c1[nH]c2ccccc2n1C1CCN(CCCC(c2ccc(F)cc2)c2ccc(F)cc2)CC1` [pimozide 10, pimozide, reference compound], the “ED50 vs L. major” value [1, 9] was 22900 µM, the EC50 [1, 10] was > 1 µM and the “10mM inhibition L. major” value [1, 7] was 56%. For the same molecule, the “20mM inhibition LmjIPCS” value [2] was 77%, the IC50 [2] was 4.14 µM and the LmjIPCS inhibition ([2]; secondary dose response) was “confirmed”.

`Cc1nnc(NS(=O)(=O)c2ccc(N)cc2)s1` [sulfamethizole 14, sulfamethizole, reference compound] was tested, and the “ED50 vs L. major” value [1, 9] was 39600 µM, the antileishmanial activity [1, 11] was “poor antileishmanial activity” and the “10mM inhibition L. major” value [1, 7] was 68%. For the same molecule, the “20mM inhibition LmjIPCS” value [2] was 77%, the IC50 [2] was > 100 µM and the “IC50 against LmjIPCS” value [2] was “could not be determined”.

With `CCCCCCCCNC(C)C(O)c1ccc(SC(C)C)cc1` (stereo not shown) [suloctidil 15, suloctidil, reference compound] the “ED50 vs L. major” value [1, 9] was 1330 µM, the EC50 [1, 10] was > 1 µM and the “10mM inhibition L. major” value [1, 7] was 74%. For the same molecule, the IC50 [2] was 3.67 µM, the “20mM inhibition LmjIPCS” value [2, 8] was 81% and the LmjIPCS inhibition ([2]; secondary dose response) was “confirmed”.

In the case of `CN1CCN(CCCN2c3ccccc3Sc3ccc(C(F)(F)F)cc32)CC1` [trifluoperazine 16, trifluoperazine, reference compound], the “ED50 vs L. major” value [1, 9] is reported as 7170 µM, the EC50 [1, 10] is reported as > 1 µM and the “10mM inhibition L. major” value [1, 7] is reported as 67%. For the same molecule, the “20mM inhibition LmjIPCS” value [2] was 86%, the IC50 [2] was 5.03 µM and the LmjIPCS inhibition ([2]; secondary dose response) was “confirmed”.

In the case of GINKGOLIC ACID, the “10mM inhibition L. major” value [1, 7] is reported as <5% and the “20mM inhibition LmjIPCS” value [2] is reported as 73%.

For TANNIC ACID, the “10mM inhibition L. major” value [1, 7] was <5% and the “20mM inhibition LmjIPCS” value [2] was 91%.

Reference: publication PMC7802075 (ACS Infectious Diseases, 2020)
